Assays:
Assay type in all cases: in vivo
c-fos = test: Immunohistochemical staining of c-fos in the hippocampus, Syn^Tg mice; conditions: EHT 12 mg/kg/day and/or caffeine 50 mg/kg/day until six months of age
Source text: (§1) Thy1-α-synuclein transgenic mice (Syn^Tg) on BDF1 background overexpressing human wild-type α-synuclein under the control of the Thy1 promoter were maintained by mating heterozygous transgenic females with WT BDF1 males (Rockenstein E, et al. (2002) Differential neuropathological alterations in transgenic mice expressing alpha-synuclein from the platelet-derived growth factor and Thy-1 promoters. J Neurosci Res 68(5):568-578). BDF1 mice (mixed C57BL/6-DBA/2) were generated every three months by mating female C57BL/6 (The Jackson Laboratory) and male DBA/2 mice (Charles River). Experiments were performed with male transgenic mice and their WT littermates. […] Wild-type littermates received regular water and control chow. […] At two months of age, mice were inoculated with α-Syn PFF unilaterally in the striatum. These treatments continued throughout the experiment until animals were sacrificed. Mice were weighed and their food and water intake was quantified weekly. […]
Vectastain elite ABC kit (Vector Laboratories, Burlingame, Calif.) and 3,3′-diaminobenzidine (Sigma-Aldrich) were used for amplifying and color development. […] For other stains, the whole microscopic field was analyzed. For p-α-Syn stains in the cortex, four matching regions in each of two sections per animal were counted.

[1] = test system: α-Syn PFF inoculated WT mice; test: Morris Water Maze, α-Syn PFF inoculated WT mice; conditions: EHT 12 mg/kg/day and/or caffeine 50 mg/kg/day, 6 months post-inoculation, test also not affected by PFF inoculation
Source text: as §1, with “weekly. Animals were housed 2-5/cage in an AAALAC approved facility in a temperature- and humidity-controlled environment under a 12-hour light/dark cycle and were maintained on a diet of lab chow and water ad libitum.” for “weekly.”

[2] = test system: phosphorylated α-synuclein (p-α-Syn); test: Immunohistochemical staining of p-α-Syn, α-Syn PFF inoculated WT mice; conditions: EHT 12 mg/kg/day and/or caffeine 50 mg/kg/day
Source text: Thy1-α-synuclein transgenic mice (Syn^Tg) on BDF1 background overexpressing human wild-type α-synuclein under the control of the Thy1 promoter were maintained by mating heterozygous transgenic females with WT BDF1 males (Rockenstein E, et al. (2002) Differential neuropathological alterations in transgenic mice expressing alpha-synuclein from the platelet-derived growth factor and Thy-1 promoters. J Neurosci Res 68(5):568-578). BDF1 mice (mixed C57BL/6-DBA/2) were generated every three months by mating female C57BL/6 (The Jackson Laboratory) and male DBA/2 mice (Charles River). Experiments were performed with male transgenic mice and their WT littermates. […] Wild-type littermates received regular water and control chow. […] At two months of age, mice were inoculated with α-Syn PFF unilaterally in the striatum. These treatments continued throughout the experiment until animals were sacrificed. Mice were weighed and their food and water intake was quantified weekly. Animals were housed 2-5/cage in an AAALAC approved facility in a temperature- and humidity-controlled environment under a 12-hour light/dark cycle and were maintained on a diet of lab chow and water ad libitum. All animal procedures were approved by the Rutgers-Robert Wood Johnson Medical School Institutional Animal Care and Use Committee and were performed according to the National Institutes of Health Guide for the Care and Use of Laboratory Animals.
α-Syn PFF solution was sonicated at 60% amplitude 30 times (0.5 sec on, 0.5 sec off). During the stereotactic surgery, two month old WT C57BL/6 mice were anesthetized by Ketamine/xylazine (90/4.5 mg/kg, i.p., Ketaset from Zoetis, and Anased from Akorn) and positioned in a digital stereotaxic apparatus (Stoelting, Wood Dale, Ill.). A midline sagittal incision was made in the scalp, and a hole was drilled in the skull over the right striatum according to the coordinates below. All injections were made using a Hamilton neuros syringe equipped with a 33 gauge needle and attached to a Quintessential Stereotaxic Injector (Stoelting, Wood Dale, Ill.). A total of 5∝g/2.5 ul of α-Syn PFF was infused in the dorsal striatum (+0.2 mm relative to Bregma, +2.0 mm from midline, +2.6 mm beneath the dura) at a delivery rate of 0.2∝l/min (61). The needle was kept in place for 5 min following the infusion to prevent reflux before withdrawing.
Immunohistochemical analyses were performed as described previously (Lee et al., 2011; 2012). Mice were perfused transcardially with PBS, and brains were removed and post-fixed in 10% formalin at 4° C. overnight. Fixed brains were then sectioned coronally in 30 am thickness using a cryostat and collected as sets of slices with the same interval. Free-floating sections were blocked by 1% BSA and 0.2% Triton X100 in PBS. Sections were then incubated with primary antibody overnight at 4° C. and biotinylated secondary antibody for 1 hour at room temperature.
Vectastain elite ABC kit (Vector Laboratories, Burlingame, Calif.) and 3,3′-diaminobenzidine (Sigma-Aldrich) were used for amplifying and color development. Images were captured by Nikon Eclipse 55i. Staining intensity and phosphorylated α-synuclein (p-α-Syn) aggregate counts were obtained by Image Pro Plus. Intensity calibration was set to the level of a blank area in each image. HSI (hue, saturation and intensity) was used for the color selection with the standard parameters of H: 0-30, S: 0-255 and I: 0-160. […]

[3] = vs untreated α-Syn PFF inoculated mice

CCCCCCCCCCCCCCCCCCCC(=O)NCCc1c[nH]c2ccc(O)cc12 [EHT, eicosanoyl-5-hydroxytryptamide]
c-fos immunoreactivity in the hippocampus (c-fos): failed to increase c-fos immunoreactivity significantly | Learning and memory task on the Morris Water Maze [1]: not affected | p-α-Syn immunoreactivity in the ipsilateral nigra [2]: less abundant | p-α-Syn in the contralateral striatum [2, 3]: partially but insignificantly reduced | p-α-Syn in the ipsilateral striatum [2, 3]: partially but insignificantly reduced

From patent US20210369720A1, “SYNERGISTIC COMPOSITION HAVING NEUROPROTECTIVE PROPERTIES AND METHODS OF USE THEREOF” (Rutgers, The State University of New Jersey, priority 2018, published 2021)
